Tests used:
human PASK [1] = biological target: T1, human PASK (Homo sapiens, UniProt Q96RG2); assay: 33P radioactive kinase assay; format: biochemical; details: 33P radioactive PASK kinase assay, 10 μM ATP, ZIPtide 1 μM
T1 construct: purchased ThermoFisher Scientific PR7013A
Description: The principle of the ^33P radioactive kinase assay consists in measuring the incorporated ^33P into the ZIPtide peptide substrate when phosphorylated by human PASK using [^33P]-[…]-ATP and ATP, which correlates with kinase activity.
The test compounds are prepared as a serial dilution of 10 point dose responses with 1/5 dilution steps in 100% DMSO starting from 0.2 or 2 mM highest concentration, diluted 1/20 in water and 5 μL is transferred to the assay plates (Greiner, Cat #651201).
1% DMSO and 10 μM staurosporine final concentrations are used respectively as negative and positive controls.
11 μL of enzyme-substrate mixture is added on the assay plates. The reactions are started by adding 9 μL ATP mixture, consisting of non-labeled and ^33P-labeled ATP, on the assay plates.
The reactions are stopped by adding 25 μL phosphoric acid (150 mM) to the reactions.
The completely terminated kinase reactions are transferred using a harvester on pre-wetted UniFilter-96 plates (UniFilter-96 GF/B, PerkinElmer Inc., Cat #6005177).
After harvesting the kinase reactions, the filter plates are washed 6 times with phosphoric acid (75 mM). The back of the UniFilter-96 plates are sealed and 40 μL MicroScint-20 (PerkinElmer Inc., Cat #6013621) is added to each well. The top of each plate is sealed with TopSeal-A (PerkinElmer Inc., Cat #6050185). Read-out is performed with a TopCount instrument (PerkinElmer Inc.).
Raw data are generated following the read-out performed on the TopCount, used to calculate percentage inhibition (PIN) values and plotted to generate dose response curves and derive the average half maximal inhibitory concentrations (IC50) reported in Table VI.

human PASK [2] = biological target: T1, human PASK; assay: ADP-Glo kinase assay; format: biochemical; details: ADPGlo PASK kinase assay, 25 μM ATP, ZIPtide 25 μM
In short: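 Human recombinant PASK phosphorylating ZIPtide peptide with ATP, 120 min at RT; compounds in 10-point 1/5 dilution series, 1% DMSO final. ADP formed measured by ADP-Glo luminescence after ATP depletion; percent inhibition fitted to dose-response curves for averaged IC50.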

[3] = biological target: T2, autophosphorylation of PASK at position Thr307 in Hek293 cells overexpressing PASK (Homo sapiens, UniProt Q96RG2); assay: PASK autophosphorylation ELISA assay; format: cell-based; details: 24 h, ELISA readout
T2 construct: expressed in transfected cells; host or cells: Hek293
Description: The compounds of the invention are profiled in a cellular assay to determine their capacity to reduce the autophosphorylation levels of PASK at position Thr307 in Hek293 cells overexpressing PASK, using an ELISA-based readout.
At day 1, a 96-well cell assay plate is coated with poly-D-lysine (50 μL/well of a 0.05 mg/mL solution in PBS) and incubated for 1 h at 37° C. The plate is subsequently washed once with PBS and stored dry at RT until further use. Hek293 cells are transfected with a pcDNA3.1-PASK(FL,WT)-FLAG construct (SEQ ID1) and seeded in culture medium (DMEM+10% FBS) in a poly-D-lysine coated 96-well plate (0.3 μL JetPEI DNA transfection reagent (Polyplus-transfection SA, Cat #101-40), 10 ng construct and 90 ng pBluescript, 60000 cells per well). […] The cell plate is incubated overnight at 37° C., 5% CO2.
At day 2, the medium of the assay plate is removed and 100 μL of fresh medium (DMEM+10% FBS) is added to the plate. Cell plate is further incubated overnight at 37° C., 5% CO2. This to allow further expression of PASK protein.
At day 3, the medium is removed and replaced with 100 μL of serum free medium (DMEM). Test compound is added to the plate (8 points concentration curve with 1/3 dilution steps starting from 30 μM final concentration in 0.3% DMSO final). In the positive and negative control wells of the plate, 0.3% DMSO final is added. For each tested condition, duplicates are made for ELISA readout. Cell plate is incubated 24 h at 37° C., 5% CO2.
At day 4, the medium is removed and the plate is washed once with 100 μL/well PBS. Cells are lysed by adding 50 μL/well western blot lysis buffer (20 mM Tris pH 7.5, 150 mM NaCl and 1% Triton) to the plate. The assay plate is stored at −80° C. and thawed to perform the ELISA readout.
At day 1, the ELISA plate is coated with the mouse anti-FLAG antibody (2 μg/mL diluted in PBS, 100 μL/well) and incubated overnight at 4° C.
At day 2, the plate is washed once with 150 μL/well PBS. 200 μL/well blocking buffer (PBS with 3% BSA) is added and the plate is incubated for 4 h at RT. The plate is washed with 150 μL/well high salt washing buffer (20 mM Na2HPO4, 0.5% Triton X-100, 0.1% SDS, 0.1% BSA and 1 M NaCl) followed by one wash with 150 μL/well low salt washing buffer (20 mM Na2HPO4, 0.5% Triton X-100, 0.1% SDS, 0.1% BSA and 150 mM NaCl). Meanwhile, the cell lysate plate is thawed, two wells of the same condition are pooled (2×50 μL) and added to the ELISA plate. The ELISA plate is incubated overnight at 4° C.
At day 3, the ELISA plate is washed twice with 150 μL/well high salt washing buffer followed by two washes with low salt washing buffer. 100 μL/well detection antibody for pPASK (phospho-Akt substrate (RXXS*/T*) (110B7E) rabbit antibody (Cell Signaling Technology, Inc., Cat #9614) 2 μg/mL diluted in PBS with 3% BSA and 1×Halt™ protease and phosphatase inhibitor cocktail (Thermo Fisher Scientific, Inc., Cat #78447)) is added and incubated for 2 h at RT. The plate is washed twice with high and low salt wash buffer (150 μL/well) and 100 μL/well of an HRP antibody (swine anti-rabbit HRP antibody (Agilent Technologies, Inc., Cat #P039901) diluted 1/2000 in PBS with 3% BSA and 1×Halt™ protease and phosphatase inhibitor cocktail) is added to the plate, followed by an incubation for 1 h at RT in the dark (plate sealed with aluminum seal). The plate is washed twice with high and low salt wash buffer (150 μL/well) and 100 μL/well of SuperSignal™ ELISA Pico Chemiluminescent Substrate (Thermo Fisher Scientific, Inc., Cat #37070)(premix part 1 and part 2, 1/1) is added. The plate is incubated for 4 min at RT before measuring luminescence on the Luminoskan™ Ascent (Thermo Fisher Scientific, Inc.) (PMT default voltage; 100 ms integration time). […]

T2 sequence (Q96RG2 with tags, fused parts or gaps): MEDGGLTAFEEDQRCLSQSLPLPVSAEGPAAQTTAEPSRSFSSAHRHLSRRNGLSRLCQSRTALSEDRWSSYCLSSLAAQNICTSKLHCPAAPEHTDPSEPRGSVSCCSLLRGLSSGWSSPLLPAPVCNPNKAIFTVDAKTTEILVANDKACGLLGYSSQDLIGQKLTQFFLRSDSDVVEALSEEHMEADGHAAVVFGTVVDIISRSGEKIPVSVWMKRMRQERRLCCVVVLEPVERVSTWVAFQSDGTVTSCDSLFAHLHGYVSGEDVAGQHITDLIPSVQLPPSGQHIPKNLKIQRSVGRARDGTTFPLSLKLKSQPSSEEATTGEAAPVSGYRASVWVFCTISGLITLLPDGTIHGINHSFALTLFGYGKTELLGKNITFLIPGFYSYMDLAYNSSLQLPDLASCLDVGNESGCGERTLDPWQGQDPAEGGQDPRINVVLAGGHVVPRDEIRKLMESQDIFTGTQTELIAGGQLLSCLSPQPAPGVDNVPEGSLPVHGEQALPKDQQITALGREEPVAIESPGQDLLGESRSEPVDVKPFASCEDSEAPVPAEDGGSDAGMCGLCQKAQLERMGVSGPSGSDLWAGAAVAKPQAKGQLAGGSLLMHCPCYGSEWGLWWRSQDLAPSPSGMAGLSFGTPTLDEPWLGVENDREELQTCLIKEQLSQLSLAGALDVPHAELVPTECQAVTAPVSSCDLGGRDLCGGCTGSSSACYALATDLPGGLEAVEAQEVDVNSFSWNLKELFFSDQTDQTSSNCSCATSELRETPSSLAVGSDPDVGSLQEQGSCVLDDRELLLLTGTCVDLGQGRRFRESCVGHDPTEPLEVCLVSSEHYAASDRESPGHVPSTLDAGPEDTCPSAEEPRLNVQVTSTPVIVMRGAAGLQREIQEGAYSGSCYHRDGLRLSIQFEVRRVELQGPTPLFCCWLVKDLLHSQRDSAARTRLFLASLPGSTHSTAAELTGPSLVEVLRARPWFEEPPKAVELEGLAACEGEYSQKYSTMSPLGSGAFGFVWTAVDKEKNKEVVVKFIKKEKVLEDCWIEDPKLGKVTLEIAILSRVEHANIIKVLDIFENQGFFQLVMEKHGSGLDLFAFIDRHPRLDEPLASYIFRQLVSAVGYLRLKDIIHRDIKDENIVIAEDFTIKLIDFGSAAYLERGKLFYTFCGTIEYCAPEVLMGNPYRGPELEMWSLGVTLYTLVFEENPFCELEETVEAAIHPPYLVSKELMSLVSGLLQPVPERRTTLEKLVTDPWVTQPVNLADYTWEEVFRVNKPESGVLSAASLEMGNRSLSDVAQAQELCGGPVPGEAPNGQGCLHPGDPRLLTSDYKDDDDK
T1 sequence (Q96RG2 whole entry): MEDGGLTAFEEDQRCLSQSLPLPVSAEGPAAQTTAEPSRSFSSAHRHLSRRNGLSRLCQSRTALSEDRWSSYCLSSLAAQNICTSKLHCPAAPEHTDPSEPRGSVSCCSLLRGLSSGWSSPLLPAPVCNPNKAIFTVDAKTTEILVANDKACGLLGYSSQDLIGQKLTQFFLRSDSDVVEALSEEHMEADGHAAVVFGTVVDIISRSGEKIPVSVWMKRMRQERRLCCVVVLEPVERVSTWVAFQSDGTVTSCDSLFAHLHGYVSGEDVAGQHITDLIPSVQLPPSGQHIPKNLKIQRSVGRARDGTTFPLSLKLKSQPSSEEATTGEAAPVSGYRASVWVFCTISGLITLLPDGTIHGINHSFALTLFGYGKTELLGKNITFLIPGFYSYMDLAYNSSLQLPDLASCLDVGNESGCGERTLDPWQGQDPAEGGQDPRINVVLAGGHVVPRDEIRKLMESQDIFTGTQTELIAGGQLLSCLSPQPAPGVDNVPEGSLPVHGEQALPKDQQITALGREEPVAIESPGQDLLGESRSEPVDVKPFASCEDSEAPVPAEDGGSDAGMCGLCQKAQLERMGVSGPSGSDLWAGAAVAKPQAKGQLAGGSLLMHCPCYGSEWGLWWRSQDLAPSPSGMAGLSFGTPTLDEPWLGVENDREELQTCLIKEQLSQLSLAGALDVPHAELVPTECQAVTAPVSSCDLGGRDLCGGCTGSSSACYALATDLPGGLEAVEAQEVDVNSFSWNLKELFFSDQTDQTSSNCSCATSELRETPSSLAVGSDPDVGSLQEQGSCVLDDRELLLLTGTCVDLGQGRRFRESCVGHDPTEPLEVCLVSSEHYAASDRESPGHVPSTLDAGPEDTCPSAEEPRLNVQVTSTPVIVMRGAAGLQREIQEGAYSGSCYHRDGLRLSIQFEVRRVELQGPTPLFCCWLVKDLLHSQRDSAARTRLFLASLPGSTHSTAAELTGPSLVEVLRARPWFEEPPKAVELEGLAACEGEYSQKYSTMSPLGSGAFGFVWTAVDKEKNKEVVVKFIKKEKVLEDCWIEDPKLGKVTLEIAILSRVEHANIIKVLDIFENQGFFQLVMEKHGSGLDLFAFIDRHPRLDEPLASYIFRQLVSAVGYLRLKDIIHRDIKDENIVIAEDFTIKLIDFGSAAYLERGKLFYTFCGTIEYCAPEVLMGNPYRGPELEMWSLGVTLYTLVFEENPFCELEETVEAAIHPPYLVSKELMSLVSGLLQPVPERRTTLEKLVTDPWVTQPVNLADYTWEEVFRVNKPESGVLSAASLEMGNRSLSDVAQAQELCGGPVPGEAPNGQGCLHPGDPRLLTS

SMILES | IC50 (human PASK [1]) [nM] | IC50 (human PASK [2]) [nM] | IC50 [3] [nM]
Cc1nn(C)c(C)c1-c1cnn2ccc(-c3cc(C(=O)O)co3)cc12 [Cpd 2, 5-[3-(1,3,5-trimethylpyrazol-4-yl)pyrazolo[1,5-a]pyridin-5-yl]furan-3-carboxylic acid] | 0.01 to 10 | 0.01 to 10 | 500 to 1000
COc1nc(-c2ccn3ncc(-c4c(C)nn(C)c4C)c3c2)sc1C(=O)O [Cpd 8, 4-methoxy-2-[3-(1,3,5 trimethylpyrazol-4-yl)pyrazolo[1,5-a]pyridin-5-yl]thiazole-5-carboxylic acid] | 0.01 to 10 | 0.01 to 10 | > 5000
CCOc1nc(-c2ccn3ncc(-c4c(C)nn(C)c4C)c3c2)sc1C(=O)O [Cpd 9, 4-ethoxy-2-[3-(1,3,5-trimethylpyrazol-4-yl)pyrazolo[1,5-a]pyridin-5-yl]thiazole-5-carboxylic acid] | 0.01 to 10 | 0.01 to 10 | 500 to 1000
Cc1c(-c2cnn3ccc(-c4cc(C(=O)O)co4)cc23)c(C(F)(F)F)nn1C [Cpd 23, 5-[3-[1,5-dimethyl-3-(trifluoromethyl)pyrazol-4-yl]pyrazolo[1,5-a]pyridin-5-yl]furan-3-carboxylic acid] | 0.01 to 10 |  | 0.1 to 500
CCn1nc(C)c(-c2cnn3ccc(-c4cc(C(=O)O)co4)cc23)c1C [Cpd 28, 5-[3-(1-ethyl-3,5-dimethyl-pyrazol-4-yl)pyrazolo[1,5-a]pyridin-5-yl]furan-3-carboxylic acid] | 0.01 to 10 | 0.01 to 10 | 500 to 1000
Cc1noc(C)c1-c1cnn2ccc(-c3cc(C(=O)O)c(C4CC4)o3)cc12 [Cpd 32, 2-cyclopropyl-5-[3-(3,5-dimethylisoxazol-4-yl)pyrazolo[1,5-a]pyridin-5-yl]furan-3-carboxylic acid] | 0.01 to 10 | 0.01 to 10 | 1000 to 5000
Cc1nn(C(F)F)c(C)c1-c1cnn2ccc(-c3cc(C(=O)O)co3)cc12 [Cpd 35, 5-[3-[1-(difluoromethyl)-3,5-dimethyl-pyrazol-4-yl]pyrazolo[1,5-a]pyridin-5-yl]furan-3-carboxylic acid] | 0.01 to 10 | 0.01 to 10 | 1000 to 5000
CCn1nc(C)c(-c2cnn3ccc(-c4nc(C5CC5)c(C(=O)O)s4)cc23)c1C [Cpd 38, 4-cyclopropyl-2-[3-(1-ethyl-3,5-dimethyl-pyrazol-4-yl)pyrazolo[1,5-a]pyridin-5-yl]thiazole-5-carboxylic acid] | 0.01 to 10 | 0.01 to 10 | 0.1 to 500
Cc1nn(C(C)C)c(C)c1-c1cnn2ccc(-c3nc(C4CC4)c(C(=O)O)s3)cc12 [Cpd 39, 4-cyclopropyl-2-[3-(1-isopropyl-3,5-dimethyl-pyrazol-4-yl)pyrazolo[1,5-a]pyridin-5-yl]thiazole-5-carboxylic acid] | 0.01 to 10 | 0.01 to 10 | 0.1 to 500
Cc1nn(CC(F)(F)F)c(C)c1-c1cnn2ccc(-c3cc(C(=O)O)co3)cc12 [Cpd 40, 5-[3-[3,5-dimethyl-1-(2,2,2-trifluoroethyl)pyrazol-4-yl]pyrazolo[1,5-a]pyridin-5-yl]furan-3-carboxylic acid] | 0.01 to 10 | 0.01 to 10 | 1000 to 5000
Cc1nn(CC(F)(F)F)c(C)c1-c1cnn2ccc(-c3nc(C4CC4)c(C(=O)O)s3)cc12 [Cpd 42, 4-cyclopropyl-2-[3-[3,5-dimethyl-1-(2,2,2-trifluoroethyl)pyrazol-4-yl]pyrazolo[1,5-a]pyridin-5-yl]thiazole-5-carboxylic acid] | 0.01 to 10 | 0.01 to 10 | 0.1 to 500
Cc1nn(C)c(C)c1-c1cnn2ccc(-c3cc(C(N)=O)co3)cc12 [Cpd 43, 5-[3-(1,3,5-trimethylpyrazol-4-yl)pyrazolo[1,5-a]pyridin-5-yl]furan-3-carboxamide] | 0.01 to 10 | 0.01 to 10 | 1000 to 5000

— patent US20220144823A1, “PYRAZOLOPYRIDINE DERIVATIVES AS INHIBITORS OF PASK” (Galapagos NV, priority 2019, published 2022)
